Key:
onion root tips = assay: Cell death determination by Evans blue staining, root tips; assay type: cell-based, Allium cepa; details: 4 days; for increase in relative cell death: 100 μM; for increase in relative cell death compared to 100 μM: 300 μM
Procedure: To evaluate cell death in roots, onion seeds were germinated and treated as described in postemergence assay with weed species. Onion seedlings were exposed to different doses of compounds of formulas III and IV (0, 100 and 300 μM) during 4 days. For the experiment with leaf disks 3-weeks-cucumber plants were used. One disk (1 cm) was placed in each well of a 12-well plate together with 1 mL of a 2% w/v sucrose/1 mM MES, pH 6.5 solution containing each of the compounds tested at the appropriate concentration (0, 100 or 300 μM) and acetone (1% v/v). Each assay was performed with leaf disks from different plants. Plates were sealed with Parafilm and incubated in a growth chamber at 21-27° C. with a 16/8 h light/dark cycle for 7 days.
Cell death was determined by Evans blue staining.^26 Root tips (5-mm sections) and leaf disks were incubated for 30 min in 0.25% w/v Evans blue aqueous solution at 25° C. on a rotary shaker. After staining, unbound dye was removed by extensive washing with deionized water. Three root tips (3 replicates) or one leaf disk (4 replicates) were ground in a tissue grind tube with 500 μL 1% w/v sodium dodecyl sulfate (SDS). The resulting suspension was centrifuged for 20 min at 20,000 g and the supernatant was used for dye quantification by monitoring the absorbance at 600 and 680 nm. Relative cell death was expressed as A600 for root tips and A600/A680 ratios for leaf disks.

[1] = tested on: creeping bentgrass (A. stolonifera); assay: Germination bioassay with creeping bentgrass; assay type: in vivo, Agrostis stolonifera; set-up: key to Phytotoxicity at day 7, Creeping bentgrass: 0 = no effect; 5 = no growth or germination; details: for Phytotoxicity at day 7, Creeping bentgrass: 1 mM, 24-well plates, rating scale of 0 to 5; for inhibition at 1000 µg/mL: Agrostis stolonifera, 168 h, creeping bentgrass, 1 mg/mL, day 7; for creeping bentgrass germination: fractions at 1 mg/mL
Procedure: DCM extract of flowers of A. visnaga (1.6 g) was divided in two 800 mg halves and each one was subjected to column chromatography using an Isolera One system (Biotage), equipped with UV detector (302 and 365 nm) and automatic fraction collector. Separation was performed by normal-phase chromatography column using a SNAP Cartridge KP-Sil (37×157 mm, 50 μm irregular silica, 100 g, Biotage) and a pre-packaged SNAP Samplet Cartridge KP-Sil (37×17 mm, Biotage). A full gradient of hexane:ethyl acetate was used for elution, from 100:0 to 0:100 over 3000 ml. Flow was 40 ml/min and 25 ml fractions were collected. Equal fractions were combined based on similarities on their TLC and chromatogram profiles providing nineteen fractions named I to XIX. All fractions were evaluated for their phytotoxicity on germination bioassay of lettuce (L. sativa) and creeping bentgrass (A. stolonifera).
A filter paper and 5 lettuce or 10 mg of creeping bentgrass seeds were placed in each well of a 24-well plate. Stock solutions (10×) of test compounds were prepared in acetone. 180 μl of distilled water were added to each well together with 20 μl of stock solution or acetone in solvent control. Final concentration of acetone was 10% v/v. Plates were sealed with Parafilm, and incubated at 26° C. in a growth chamber set at 173 μmol m^−2 s^−1 continuous photosynthetically active radiation. Phytotoxic activity was qualitatively evaluated by visually comparing germination in each well with solvent control at 7 days. A qualitative estimation of phytotoxicity was obtained by using a rating scale of 0 to 5, where 0 was no effect, and 5 was no germination of seeds. This procedure was also used for testing the phytotoxicity of pure compounds on ryegrass. On this experiment 12-well plates were used. 10 seeds were placed per well and final volume was 300 μl in each one. During dose-response bioassays used for IC50 determination, germination percentage and length of plants were measured at 7 days in order to determine the concentration required for 50% germination and growth inhibition (IC50). All experiments were done in triplicate.

[2] = tested on: A. cepa root meristem cells; assay: Effect on cell division (mitotic index analysis); assay type: cell-based, Allium cepa; details: for inhibition of cell division: 0 to 1000 μM; for reversibility of inhibition of cellular division: 100 μM, seeds washed at 3 days; for proportion of cells with abnormal configurations: chromosome aberrations, nuclear abnormalities, micronuclei
Procedure: Onion seeds (Allium Cepa L. Evergreen Longwhite Bunching, Burpee & Co, 2012, EE.UU) germination was carried out for 7 days with a 14-h photoperiod in 9-cm-diameter Petri dishes on a filter paper disk that was moistened with a dilution (2.5 mL) of test compound or control. Stock solutions of test compounds (100×) were prepared in acetone, and aliquots were diluted in distilled water to get the final concentration. The control consisted of water with the same proportion of acetone (1% v/v) applied in the treatments.
At 7 days of incubation, samples were processed for mitotic index analysis according to Armbruster et al.^25 Twenty root tips (1-cm sections) were fixed in glacial acetic acid:absolute ethanol (1:3 v/v) for 30 min. The segments were incubated with 5 N HCl at 25° C. for 1 h, and washed several times with distilled water. After that, segments were stained with Schiff's reagent for 45 min in the dark at 25° C. Stained meristematic regions were identified as purple tips. The root segments were transferred with tweezers to a drop of 45% acetic acid in water on a microscope slide. The tips were cut with a razor blade, and a cover slip was carefully placed over the tips and gently squashed by applying slight and constant pressure directly over the tissues. The edge of the cover slip was sealed with nail polish to delay the evaporation of acetic acid. The mitotic index was calculated by tallying the cells in various stages of mitosis. At least 1,000 cells/slide and in triplicate (3,000 cells per treatment) were counted for suitable statistical analysis of data. An Olympus BX60 microscope (Olympus, Center Valley) was used, and cells with abnormal mitotic configurations were counted as a separate class.
This procedure was slightly modified to evaluate if cell division inhibition caused by furanochromones was reversible. For this experiment onion seeds were incubated with solutions containing compounds of formulas III and IV for 3 days. After this period, all seeds were washed three times with distilled water and placed in new Petri dishes on moistened filter paper disks with distilled water (Wash+treatment). Seeds were then incubated for 4 more days, after which a mitotic index analysis was performed. As a reference to compare results, another set of onion seeds was kept with test compounds or control for 7 days (Wash−treatment) before analysis.

[3] = tested on: ryegrass, barnyardgrass, crabgrass, foxtail, millet, morningglory and velvetleaf; assay: Pre-emergence bioassay in Petri dishes against different weeds; assay type: in vivo; details: 0.5 and 1.0 mM
Procedure: Compounds of Formulas III and IV above were tested in a pre-emergence bioassay (in Petri dishes) against different weeds at 0.5 and 1.0 mM. The seeds of different weeds were placed in Petri dishes with a filter paper and 4 mL of an aqueous solution of each compound or commercial herbicide.
Plant length was measured at 7 days of incubation.

ryegrass = assay: Postemergence bioassay with ryegrass in Petri dishes; assay type: in vivo; details: Lolium multiflorum, post-emergence; 500 μM; day 6 (4 days after application); read-out: Growth inhibition (%) as percentage of control
Procedure: Plant length was measured at day 6 (4 days after application of the compounds)
Plant length's axis starts in 5 mm because seeds were pre-incubated in water, so all seedlings were around 5 mm long at the beginning of the treatment.

SMILES	increase in relative cell death (onion root tips)	increase in relative cell death compared to 100 μM (onion root tips)	Phytotoxicity at day 7, Creeping bentgrass [1]	inhibition at 1000 µg/mL [1] [%]	creeping bentgrass germination [1]	inhibition of cell division ([2]; 7 days)	reversibility of inhibition of cellular division [2]	proportion of cells with abnormal configurations [2]	effect on growth and germination of different weeds [3]	inhibition at 500 µM (ryegrass) [%]	inhibition of onion cell division ([2]; 300 μM, 7 days)
COc1c2occc2c(OC)c2c(=O)cc(C)oc12 [Formula III, 4,9-dimethoxy-7-methyl-5H-furo[3,2-g]chromen-5-one]	two-fold	two-fold	5	100	completely inhibited	inhibited cell division in a dose-dependent manner	irreversible	higher than in the control	strongly interfered	25	
COc1c2ccoc2cc2oc(C)cc(=O)c12 [Formula IV, 4-methoxy-7-methyl-5H-furo[3,2-g]chromen-5-one]	two-fold	two-fold	5	100	completely inhibited	inhibited cell division in a dose-dependent manner	irreversible	higher than in the control	strongly interfered	66	completely inhibited

Reference: US11083197B2, “Herbicidal composition comprising chromone derivatives and a method for weed control” (INVESTIGACIONES BIOLÓGICAS EN AGROQUÍMICOS ROSARIO S.A., priority 2015, dated 2021)
